Counter-ions that a name gives are not always drawn.
Tests used:
TNF = experiment: Cytokine Induction in Human Cells: tumor necrosis factor (TNF) secreted by PBMCs, ELISA; format: cell-based; conditions: 18 to 24 hours; further: call rule not given here
Outline: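 Human donor PBMCs at 1.5-2×10^6 cells/mL in RPMI with 10% FBS were exposed to compound, generally at 0.1 to 100 μM (≤1% DMSO final), for 18 to 24 h at 37 °C. Secreted TNF in supernatant was measured by ELISA and reported as pg/mL.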

IFN = experiment: Cytokine Induction in Human Cells: interferon (IFN) secreted by PBMCs, A549/encephalomyocarditis bioassay; format: cell-based; conditions: 18 to 24 hours; further: call rule not given here
Outline: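 Human PBMCs from healthy donors at 1.5-2×10^6 cells/mL in RPMI with 10% FBS, exposed to compounds (typically 0.1 to 100 μM, ≤1% DMSO) for 18 to 24 h at 37° C. Secreted IFN measured by A549/encephalomyocarditis virus cytopathic-effect bioassay, in alpha reference units/mL against NIH human leukocyte IFN standard.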

CCCCc1nc2c(N)nc3cccnc3c2n1CCNC(C)=O [Example 92, N^1-[2-(4-Amino-2-butyl-1H-imidazo[4,5-c][1,5]naphthyridin-1-yl)ethyl]acetamide]
melting point: 228 to 230 °C | TNF induction (TNF; Dose Concentration 0.1 μM): − | TNF induction (TNF; Dose Concentration 1.0 μM): + | TNF induction (TNF; Dose Concentration 10.0 μM): + | TNF induction (TNF; Dose Concentration 100.0 μM): + | IFN induction (IFN; Dose Concentration 0.1 μM): ± | IFN induction (IFN; Dose Concentration 1.0 μM): + | IFN induction (IFN; Dose Concentration 10.0 μM): + | IFN induction (IFN; Dose Concentration 100.0 μM): +

CCCCc1nc2c(N)nc3cccnc3c2n1CCNC(=O)CC(C)CCC=C(C)C (stereo not shown) [Example 100, N^1-[2-(4-Amino-2-butyl-1H-imidazo[4,5-c][1,5]naphthyridin-1-yl)ethyl]-3,7-dimethyl-6-octenamide]
melting point: 163 to 164 °C | TNF induction (TNF; Dose Concentration 0.1 μM): − | TNF induction (TNF; Dose Concentration 1.0 μM): − | TNF induction (TNF; Dose Concentration 10.0 μM): + | TNF induction (TNF; Dose Concentration 100.0 μM): + | IFN induction (IFN; Dose Concentration 0.1 μM): − | IFN induction (IFN; Dose Concentration 1.0 μM): − | IFN induction (IFN; Dose Concentration 10.0 μM): + | IFN induction (IFN; Dose Concentration 100.0 μM): +

CCCCc1nc2c(N)nc3cccnc3c2n1CCNC(=O)Cc1cccc(O)c1 [Example 98, N^1-[2-(4-Amino-2-butyl-1H-imidazo[4,5-c][1,5]naphthyridin-1-yl)ethyl]-2-(3-hydroxyphenyl)acetamide]
melting point: 208 to 210 °C | TNF induction (TNF; Dose Concentration 0.1 μM): − | TNF induction (TNF; Dose Concentration 1.0 μM): + | TNF induction (TNF; Dose Concentration 10.0 μM): + | TNF induction (TNF; Dose Concentration 100.0 μM): + | IFN induction (IFN; Dose Concentration 0.1 μM): − | IFN induction (IFN; Dose Concentration 1.0 μM): + | IFN induction (IFN; Dose Concentration 10.0 μM): + | IFN induction (IFN; Dose Concentration 100.0 μM): +

CCCCc1nc2c(N)nc3cccnc3c2n1CCNC(=O)c1cc(C(C)(C)C)c(O)c(C(C)(C)C)c1 [Example 95, N^1-[2-(4-amino-2-butyl-1H-imidazo[4,5-c][1,5]naphthyridin-1-yl)ethyl]-3,5-di-(1,1-dimethylethyl)-4-hydroxybenzamide]
melting point: 248 to 250 °C | TNF induction (TNF; Dose Concentration 0.1 μM): − | TNF induction (TNF; Dose Concentration 1.0 μM): − | TNF induction (TNF; Dose Concentration 10.0 μM): + | TNF induction (TNF; Dose Concentration 100.0 μM): + | IFN induction (IFN; Dose Concentration 0.1 μM): ± | IFN induction (IFN; Dose Concentration 1.0 μM): + | IFN induction (IFN; Dose Concentration 10.0 μM): + | IFN induction (IFN; Dose Concentration 100.0 μM): +

CCCCc1nc2c(N)nc3cccnc3c2n1CCCCNC(=O)Cn1cc(C)c(O)nc1=O [Example 108, N^1-[4-(4-Amino-2-butyl-1H-imidazo[4,5-c][1,5]naphthyridin-1-yl)butyl]-2-(4-hydroxy-5-methyl-2-oxo-1,2-dihydro-1-pyrimidinyl)acetamide]
melting point: 242 to 244 °C | TNF induction (TNF; Dose Concentration 0.1 μM): ± | TNF induction (TNF; Dose Concentration 1.0 μM): − | TNF induction (TNF; Dose Concentration 10.0 μM): + | TNF induction (TNF; Dose Concentration 100.0 μM): + | IFN induction (IFN; Dose Concentration 0.1 μM): + | IFN induction (IFN; Dose Concentration 1.0 μM): + | IFN induction (IFN; Dose Concentration 10.0 μM): + | IFN induction (IFN; Dose Concentration 100.0 μM): +

CCOCc1nc2c(N)nc3cccnc3c2n1Cc1ccccc1 [Example 70, 2-Ethoxymethyl-1-phenylmethyl-1H-imidazo[4,5-c][1,5]naphthyridin-4-amine]
melting point: 173 to 174 °C | TNF induction (TNF; Dose Concentration 0.1 μM): − | TNF induction (TNF; Dose Concentration 1.0 μM): + | TNF induction (TNF; Dose Concentration 10.0 μM): + | TNF induction (TNF; Dose Concentration 100.0 μM): − | IFN induction (IFN; Dose Concentration 0.1 μM): + | IFN induction (IFN; Dose Concentration 1.0 μM): + | IFN induction (IFN; Dose Concentration 10.0 μM): + | IFN induction (IFN; Dose Concentration 100.0 μM): −

CCCCc1nc2c(N)nc3cccnc3c2n1CCNC(=O)CCc1ccccc1 (as salt: hydrochloride) [Example 96, N^1-[2-(4-Amino-2-butyl-1H-imidazo[4,5-c][1,5]naphthyridin-1-yl)ethyl]-3-phenylpropanamide Hydrochloride]
melting point: 183 to 185 °C

CCCCc1nc2c(N)nc3cccnc3c2n1CCOc1ccccc1 [Example 85, 2-Butyl-1-(2-phenoxyethyl)-1H-imidazo[4,5-c][1,5]naphthyridin-4-amine]
melting point: 159 to 159.2 °C | TNF induction (TNF; Dose Concentration 0.1 μM): − | TNF induction (TNF; Dose Concentration 1.0 μM): + | TNF induction (TNF; Dose Concentration 10.0 μM): + | TNF induction (TNF; Dose Concentration 100.0 μM): − | IFN induction (IFN; Dose Concentration 0.1 μM): + | IFN induction (IFN; Dose Concentration 1.0 μM): + | IFN induction (IFN; Dose Concentration 10.0 μM): + | IFN induction (IFN; Dose Concentration 100.0 μM): −

O.Oc1cc2nnnn2c2cnccc12 (hydrate or solvate)
melting point: 247 to 248 °C (dec.)

CCCCc1nc2c(N)nc3cccnc3c2n1CCNC(=O)CCCCCC1NC(=O)NC1C (stereo not shown) [Example 115, N^1-[4-(4-Amino-2-butyl-1H-imidazo[4,5-c][1,5]naphthyridin-1-yl)ethyl]-6-(5-methyl-2-oxo-4-imidazolidinyl)hexamide]
melting point: 184 to 186 °C | TNF induction (TNF; Dose Concentration 0.1 μM): − | TNF induction (TNF; Dose Concentration 1.0 μM): − | TNF induction (TNF; Dose Concentration 10.0 μM): + | TNF induction (TNF; Dose Concentration 100.0 μM): + | IFN induction (IFN; Dose Concentration 0.1 μM): − | IFN induction (IFN; Dose Concentration 1.0 μM): − | IFN induction (IFN; Dose Concentration 10.0 μM): + | IFN induction (IFN; Dose Concentration 100.0 μM): +

CCCCc1nc2c(N)nc3cccnc3c2n1CC(C)(C)O [Example 62, 1,1-Dimethyl-2-(4-amino-2-butyl[1,5]napthyridin-1-yl)ethanol]
melting point: 177 to 179 °C | TNF induction (TNF; Dose Concentration 0.1 μM): + | TNF induction (TNF; Dose Concentration 1.0 μM): + | TNF induction (TNF; Dose Concentration 10.0 μM): + | TNF induction (TNF; Dose Concentration 100.0 μM): + | IFN induction (IFN; Dose Concentration 0.1 μM): + | IFN induction (IFN; Dose Concentration 1.0 μM): + | IFN induction (IFN; Dose Concentration 10.0 μM): + | IFN induction (IFN; Dose Concentration 100.0 μM): +

CCCCc1nc2cnc3cccnc3c2n1CCCCNC(=O)OC(C)(C)C [Example 43, 1,1-Dimethylethyl N-[4-(2-Butyl-1H-imidazo[4,5-c][1,5]naphthyridin-1-yl)butyl]carbamate]
melting point: 96 to 98 °C

CC(C)Cn1cnc2c(N)nc3ncccc3c21 (hydrate or solvate) [Example 9, 1-(2-Methylpropyl)-1H-imidazo[4,5-c][1,8]naphthyridin-4-amine hydrate]
melting point: 325 to 330 °C (dec.)

O=[N+]([O-])c1cnc2cccnc2c1NCc1ccccc1 [Example 66, N-Phenylmethyl-3-nitro[1,5]naphthyridin-4-amine]
melting point: 127 to 129 °C

Cc1nnnn1-c1cnccc1C(=O)O [Example 14, 3-(5-Methyl-1H-tetrazol-1-yl)pyridine-4-carboxylic acid]
melting point: 214 to 215 °C (dec.)

CC(C)Cn1cnc2cnc3cccnc3c21 [Example 30, 1-(2-Methylpropyl)-1H-imidazo[4,5-c][1,5]naphthyridine]
melting point: 82 to 84 °C

CC(C)CNc1cc2nnnn2c2cnccc12 [Example 18, N^5-(2-Methylpropyl)tetrazolo[1,5-a][1,7]naphthyridin-5-amine]
melting point: 220 to 221 °C

Clc1cc2nnnn2c2cnccc12 [Example 17, 5-Chlorotetrazolo[1,5-a][1,7]naphthyridine]
melting point: 176 to 177 °C

Oc1cc2nnnn2c2ncccc12 [Example 3, Tetrazolo[1,5-a][1,8]naphthyridin-5-ol]
melting point: 236 °C (dec.)

CCCCc1nc2c(N)nc3c(c2n1CC(C)C)CCCN3 (hydrate or solvate) [Example 13, 2-Butyl-6,7,8,9-tetrahydro-1-(2-methylpropyl) 1H-imidazo[4,5-c][1,8]naphthyridin-4-amine]
melting point: 81 to 84 °C

CCCCc1nc2c(N)nc3cccnc3c2n1CCCCNC(=O)c1ccc(N2CCOCC2)nc1 (hydrate or solvate) [Example 106, N^1-[4(4-Amino-2-butyl-1H-imidazo[4,5-c][1,5]naphthyridin-1-yl)butyl]-6-morpholinonicotinamide]
melting point: 95 to 100 °C

CCOCc1nc2cnc3cccnc3c2n1Cc1ccccc1 [Example 68, 2-Ethoxymethyl-1-phenylmethyl-1H-imidazo[4,5-c][1,5]naphthyridine]
melting point: 118 to 119 °C

CC(C)CNc1c([N+](=O)[O-])c2nnnn2c2ncccc12 [Example 6, N^5-(2-Methylpropyl)-4-nitrotetrazolo[1,5-a][1,8]naphthyridin-5-amine]
melting point: 171 °C (dec.)

CC(C)Cn1nnc2c3ncnc-3c3ccncc3n21 [Example 21, 1-(2-Methylpropyl)-1H-tetrazolo[1,5-a]imidazo[4,5-c][1,7]naphthyridine]
melting point: 181 to 182.5 °C

CC(C)CNc1c([N+](=O)[O-])cnc2cccnc12 [Example 29, N^4-(2-Methylpropyl)-3-nitro[1,5]naphthyridin-4-amine]
melting point: 97 to 99 °C

CC(C)CNc1c(N)c2nnnn2c2cnccc12 [Example 20, N^5-(2-Methylpropyl)tetrazolo[1,5-a][1,7]naphthyridin-4,5-diamine]
melting point: 203 to 204.5 °C

CCCCc1nc2cnc3cccnc3c2n1CCOc1ccccc1 [Example 83, 2-(2-Butyl-1H-imidazo[4,5-c][1,5]naphthyridin-1-yl)ethyl Phenyl Ether]
melting point: 150 to 150.5 °C

O=[N+]([O-])c1cnc2cccnc2c1NCCOc1ccccc1 [Example 81, N^4-(2-Phenoxyethyl)-3-nitro[1,5]naphthyridin-4-amine]
melting point: 107 to 108 °C

CC(C)(C)OC(=O)NCCNc1c([N+](=O)[O-])cnc2cccnc12 [Example 86, 1,1-Dimethylethyl N-{2-[(3-Nitro[1,5]naphthyridin-4-yl)amino]ethyl}carbamate]
melting point: 149 to 151 °C

CC(C)(O)CNc1c([N+](=O)[O-])cnc2cccnc12 [Example 59, 1,1-Dimethyl-2-[(3-nitro[1,5]naphthyridin-4-yl)amino]ethanol]
melting point: 184.5 to 186 °C

CCOCC(=O)Nc1cnc2cccnc2c1NCc1ccccc1.Cl
melting point: 205 to 212 °C

Reference: US7678918B2, “Intermediates for imidazonaphthyridines” (3M Innovative Properties Company, priority 1997, dated 2010)
